Data taken from patent publication US20260242395A1, “AMINOHETEROARYL KINASE INHIBITORS” (ALLORION THERAPEUTICS INC, priority 2022, published 2026).
pIC50: −log10 of the molar value.

Key:
CDK6/CyclinD3 = molecular target: T1, CDK6/CyclinD3 (Homo sapiens, UniProt Q00534); experiment: CDK6/CyclinD3 kinase inhibitory activity (Caliper mobility shift); format: biochemical; conditions: enzyme 15 nM, ATP 800 μM, 28° C. 30 min; read-out: CDK6/Cyclin D3 IC50
T1 construct: purchased Carna 04-107
Method: CDK6/CyclinD3 kinase inhibitory activity (IC50): 5 μl of various dilutions of test compound in 1× kinase buffer (50 mM HEPES pH 7.5, 10 mM MgCl2, 2 mM DTT and 0.01% Brij-35) was mixed with 10 μL of CDK6/CyclinD3 (Carna, 04-107 #, final concentration 15 nM in 1× Kinase buffer) in 384 plates and incubated at room temperature for 10 min. To initiate each reaction, 10 μL of peptide solution containing fluorescently-labeled -peptide 8(5-FAM-IPTSPITTTYFFFKKK-COOH, GL, 112396 #, final concentration 3000 nM) and ATP (final concentration 800 μM for CDK6/CyclinD3 in 1× Kinase buffer was added to each of the wells containing test compound and CDK6/CyclinD3. The reaction is then allowed to proceed at 28° C. for 30 min and terminated by the addition of 25 μL stop buffer (100 mM HEPES pH 7.5, 50 mM EDTA, 0.2% Coating Reagent #3 (Perkin Elmer, 760050 #) and 0.015% Brij-35).
(§1) Following the kinase reaction, Caliper EZ reader II (Downstream voltages: −500V, Upstream voltages: −2250V, Base pressure −0.5 PSI, Screen pressure −1.2 PSI) was used to separate the phosphorylated (product) and the unphosphorylated (substrate) fluorescently-labeled peptide 8 based on their different mobility. Both substrate and product were measured and the ratio of these values were used to generate % conversion by Caliper EZ reader II. These conversion values were then transformed into % inhibition of kinase activity using the formula: % Inhibition=[(MA−X)/(MA−MI)]×100% where MA=conversion value of DMSO only controls, MI=conversion value of no enzyme controls and X=conversion value at any given compound dose. IC50 values were then calculated by plotting dose-response curves and then using the XLfit application in Excel software.

CDK4/CyclinD1 = molecular target: T2, CDK4/CyclinD1 (Homo sapiens, UniProt P11802); experiment: CDK4/CyclinD1 kinase inhibitory activity (Caliper mobility shift); format: biochemical; conditions: enzyme 20 nM, ATP 672 uM, 28° C. 30 min; read-out: CDK4/Cyclin D1 IC50
T2 construct: purchased ProQinase 0142-0143-1
T2 sequence (P11802 whole entry): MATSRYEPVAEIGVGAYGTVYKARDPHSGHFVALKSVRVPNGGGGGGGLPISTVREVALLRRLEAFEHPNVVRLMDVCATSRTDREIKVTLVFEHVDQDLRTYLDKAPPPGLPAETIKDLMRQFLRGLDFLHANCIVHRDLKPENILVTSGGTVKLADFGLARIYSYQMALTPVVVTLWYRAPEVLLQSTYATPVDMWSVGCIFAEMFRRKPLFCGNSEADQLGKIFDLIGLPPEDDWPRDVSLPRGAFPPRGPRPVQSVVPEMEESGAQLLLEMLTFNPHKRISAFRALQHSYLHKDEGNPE
T2 sequence (P24385 whole entry partner): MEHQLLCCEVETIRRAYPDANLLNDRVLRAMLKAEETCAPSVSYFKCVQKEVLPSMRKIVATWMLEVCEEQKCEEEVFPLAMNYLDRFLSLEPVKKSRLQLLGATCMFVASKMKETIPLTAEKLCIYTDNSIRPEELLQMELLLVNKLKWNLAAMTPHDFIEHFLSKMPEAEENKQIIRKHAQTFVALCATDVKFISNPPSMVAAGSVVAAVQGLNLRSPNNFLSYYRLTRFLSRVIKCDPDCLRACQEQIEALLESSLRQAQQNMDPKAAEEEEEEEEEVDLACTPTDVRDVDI
Method: CDK4/CyclinD1 kinase inhibitory activity (IC50): 5 μl of various dilutions of test compound in 1× kinase buffer (20 mM HEPES, pH 7.5, 10 mM MgCl2, 2 mM DTT and 0.01% Triton X-100) was mixed with 10 μL of either CDK4/Cyclin D1 (ProQinase, 0142-0143-1 #, final concentration 20 nM in 1× Kinase buffer) or in 384 plates and incubated at room temperature for 10 min. To initiate each reaction, 10 μL of peptide solution containing fluorescently-labeled-peptide 8(5-FAM-IPTSPITTTYFFFKKK-COOH, GL, 112396 #, final concentration 3000 nM) and ATP (final concentration 672 uM for CDK4/CyclinD1) in 1×Kinase buffer was added to each of the wells containing test compound and CDK4/CyclinD1 mixture. The reaction is then allowed to proceed at 28° C. for 30 min and terminated by the addition of 25 μL stop buffer (100 mM HEPES pH 7.5, 50 mM EDTA, 0.2% Coating Reagent #3 (Perkin Elmer, 760050 #) and 0.015% Brij-35).
as §1

T1 sequence (Q00534 whole entry): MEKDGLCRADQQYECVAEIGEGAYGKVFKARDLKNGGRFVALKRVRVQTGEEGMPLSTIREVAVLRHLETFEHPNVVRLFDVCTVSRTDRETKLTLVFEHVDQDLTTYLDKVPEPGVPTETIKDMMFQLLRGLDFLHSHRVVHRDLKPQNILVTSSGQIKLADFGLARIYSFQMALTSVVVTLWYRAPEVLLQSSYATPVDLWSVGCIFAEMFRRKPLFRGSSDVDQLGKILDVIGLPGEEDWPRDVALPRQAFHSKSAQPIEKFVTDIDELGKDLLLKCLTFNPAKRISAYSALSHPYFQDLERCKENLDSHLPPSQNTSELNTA
T1 sequence (P30281 whole entry partner): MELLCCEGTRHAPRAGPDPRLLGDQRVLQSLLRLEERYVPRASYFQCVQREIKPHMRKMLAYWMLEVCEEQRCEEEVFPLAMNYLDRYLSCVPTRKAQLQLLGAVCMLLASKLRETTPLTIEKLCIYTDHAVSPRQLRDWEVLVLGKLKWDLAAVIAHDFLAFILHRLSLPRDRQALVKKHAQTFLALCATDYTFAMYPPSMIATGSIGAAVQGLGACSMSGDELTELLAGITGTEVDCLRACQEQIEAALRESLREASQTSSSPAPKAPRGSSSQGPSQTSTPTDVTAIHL

| SMILES | pIC50 (CDK6/CyclinD3) | pIC50 (CDK4/CyclinD1) |
| --- | --- | --- |
| Cc1nc2c(cnc3ccc(-c4nc(N[C@@H]5CCOC[C@H]5O)ncc4Cl)cc32)[nH]1 [Example 10, (3S,4R)-4-((5-chloro-4-(2-methyl-3H-imidazo[4,5-c]quinolin-8-yl)pyrimidin-2-yl)amino)tetrahydro-2H-pyran-3-ol] | ≤ 6.00 | 6.00 to 7.00 |
| CC1NCCc2cnc3c(F)cc(-c4nc(N[C@@H]5CCOC[C@H]5O)ncc4Cl)cc3c21 (single isomer, unassigned) [Example 31b] | 6.00 to 7.00 | > 8.00 |
| [2H]c1nc(N[C@@H]2CCOC[C@H]2O)nc(-c2cc(F)c3nc(C)c(C(C)NC4CC4)cc3c2)c1F (single isomer, unassigned) [Example 77a] | 6.00 to 7.00 | > 8.00 |
| CC(C)(O)C1COc2c(F)cc(-c3nc(N[C@@H]4CCOC[C@H]4O)ncc3Cl)cc2C1 (stereo partly drawn) [Example 47] | 6.00 to 7.00 | 7.00 to 8.00 |
| Cc1nc2c(F)cc(-c3nc(N[C@@H]4CCOC[C@H]4O)ncc3F)cc2c2c1CC(C)(C)NC2 [Example 92] | 6.00 to 7.00 | > 8.00 |
| Cc1cc(C(C)(C)O)c2cc(-c3nc(N[C@@H]4CCOC[C@H]4O)ncc3Cl)ccc2n1 [Example 4, (3S,4R)-4-((5-chloro-4-(4-(2-hydroxypropan-2-yl)-2-methylquinolin-6-yl)pyrimidin-2-yl)amino)tetrahydro-2H-pyran-3-ol] | 6.00 to 7.00 | 6.00 to 7.00 |
| [2H]c1nc2c(F)cc(-c3ccnc(N[C@@H]4CCOC[C@H]4O)n3)cc2c2c1CC1(CC1)NC2 [Example 66] | 6.00 to 7.00 | 7.00 to 8.00 |
| [2H]c1nc2c(F)cc(-c3nc(N[C@@H]4CCOC[C@H]4O)ncc3F)cc2c2c1CC1(CC1)NC2 [Example 70] | 6.00 to 7.00 | > 8.00 |
| Cc1c(C(C)NC2CC2)cnc2c(F)cc(-c3nc(N[C@@H]4CCOC[C@H]4O)ncc3F)cc12 (single isomer, unassigned) [Example 93b] | 6.00 to 7.00 | > 8.00 |
| Cc1nc2c(F)cc(-c3ccnc(N[C@@H]4CCOC[C@H]4O)n3)cc2c(C)c1C(C)O (single isomer, unassigned) [Example 82b] | 6.00 to 7.00 | 7.00 to 8.00 |
| CC(C)(O)c1cnc2c(F)cc(-c3nc(Nc4ccc(-c5cn[nH]c5)cn4)ncc3F)cc2c1Cl [Example 55] | ≤ 6.00 | > 8.00 |
| [2H]c1nc(N[C@@H]2CCOC[C@H]2O)nc(-c2cc(F)c3nc(C)c(C(C)O)c(C)c3c2)c1F (single isomer, unassigned) [Example 84a] | 7.00 to 8.00 | > 8.00 |
| [2H]C1([2H])NC(C)(C)Cc2cnc3c(F)cc(-c4nc(N[C@@H]5CCOC[C@H]5O)ncc4F)cc3c21 [Example 62, (3S,4R)-4-((5-fluoro-4-(7-fluoro-3,3-dimethyl-1,2,3,4-tetrahydrobenzo[c][2,6]naphthyridin-9-yl-1,1-d2)pyrimidin-2-yl)amino)tetrahydro-2H-pyran-3-ol] | 7.00 to 8.00 | > 8.00 |
| Cc1nc2c(F)cc(-c3nc(N[C@@H]4CCOC[C@H]4O)ncc3F)cc2cc1C(C)NC1CC1 (single isomer, unassigned) [Example 74b] | 6.00 to 7.00 | > 8.00 |
| [2H]c1nc(N[C@@H]2CCOC[C@H]2O)nc(-c2cc(F)c3nc(C)c4c(c3c2)CNC(C)(C)C4)c1Cl [Example 103] | 6.00 to 7.00 | > 8.00 |
| COC1c2cnc3c(F)cc(-c4nc(N[C@@H]5CCOC[C@H]5O)ncc4F)cc3c2CNC1(C)C (single isomer, unassigned) [Example 108a] | ≤ 6.00 | 7.00 to 8.00 |
| Cc1cnc(N[C@@H]2CCOC[C@H]2O)nc1-c1cc(F)c2nc(C)c3c(c2c1)CNC(C)(C)C3 [Example 104] | ≤ 6.00 | 7.00 to 8.00 |
| CNC(C)c1cnc2c(F)cc(-c3nc(N[C@@H]4CCOC[C@H]4O)ncc3F)cc2c1C (single isomer, unassigned) [Example 59b] | 6.00 to 7.00 | 7.00 to 8.00 |
| Cc1n[nH]c2c1-c1cc(-c3nc(N[C@@H]4CCOC[C@H]4O)ncc3Cl)ccc1OC2 [Example 13, (3S,4R)-4-((5-chloro-4-(1-methyl-3,4-dihydrochromeno[3,4-c]pyrazol-8-yl)pyrimidin-2-yl)amino)tetrahydro-2H-pyran-3-ol] | 6.00 to 7.00 | 7.00 to 8.00 |
| Cc1nc2c(F)cc(-c3ccnc(N[C@@H]4CCOC[C@H]4O)n3)cc2c2c1CC(C)(C)NC2 [Example 99] | ≤ 6.00 | 7.00 to 8.00 |
| CC(C)(O)C1COc2c(F)cc(-c3nc(N[C@@H]4CCOC[C@H]4O)ncc3Cl)cc2C1 (stereo partly drawn) [Example 46] | 6.00 to 7.00 | > 8.00 |
| CC1(O)CCc2nc3c(F)cc(-c4nc(N[C@@H]5CCOC[C@H]5O)ncc4Cl)cc3cc21 (single isomer, unassigned) [Example 38b] | 7.00 to 8.00 | > 8.00 |
| CCC(O)c1cc2cc(-c3nc(N[C@@H]4CCOC[C@H]4O)ncc3Cl)cc(F)c2nc1C (single isomer, unassigned) [Example 39b] | 6.00 to 7.00 | > 8.00 |

Second part, the molecule after the results:

| pIC50 (CDK6/CyclinD3) | pIC50 (CDK4/CyclinD1) | SMILES |
| --- | --- | --- |
| 7.00 to 8.00 | > 8.00 | Cc1c(C(C)O)cnc2c(F)cc(-c3nc(N[C@@H]4CCOC[C@H]4O)ncc3Cl)cc12 (single isomer, unassigned) [Example 88b] |
| 6.00 to 7.00 | > 8.00 | CC(O)c1cnc2c(F)cc(-c3nc(N[C@@H]4CCOC[C@H]4O)ncc3Cl)cc2c1Cl (single isomer, unassigned) [Example 40b] |
| 6.00 to 7.00 | 7.00 to 8.00 | CNC(C)c1cnc2c(F)cc(-c3nc(N[C@@H]4CCOC[C@H]4O)ncc3Cl)cc2c1Cl (single isomer, unassigned) [Example 63a] |
| 6.00 to 7.00 | 7.00 to 8.00 | Cc1cc(C(C)(C)O)c2cc(-c3nc(N[C@@H]4CCOC[C@H]4O)ncc3F)cc(F)c2n1 [Example 76] |
| 6.00 to 7.00 | 7.00 to 8.00 | CNC(C)c1cnc2c(F)cc(-c3nc(N[C@@H]4CCOC[C@H]4O)ncc3F)cc2c1Cl (single isomer, unassigned) [Example 64a] |
| 6.00 to 7.00 | 7.00 to 8.00 | Cc1c(C(C)(C)O)nnc2c(F)cc(-c3nc(N[C@@H]4CCOC[C@H]4O)ncc3Cl)cc12 [Example 87] |
| 6.00 to 7.00 | 7.00 to 8.00 | CNC(C)c1cnc2c(F)cc(-c3nc(N[C@@H]4CCOC[C@H]4O)ncc3F)cc2c1Cl (single isomer, unassigned) [Example 64b] |
| 6.00 to 7.00 | 7.00 to 8.00 | CC(C)(O)c1cnc2c(F)cc(-c3ccnc(N[C@@H]4CCOC[C@H]4O)n3)cc2c1Cl [Example 97] |
| 6.00 to 7.00 | > 8.00 | Cc1nc2c(F)cc(-c3nc(N[C@@H]4CCOC[C@H]4O)ncc3F)cc2cc1C(C)(C)O [Example 51] |
| 7.00 to 8.00 | > 8.00 | O[C@@H]1COCC[C@H]1Nc1ncc(Cl)c(-c2cc(F)c3ncc(C4(O)CC4)c(Cl)c3c2)n1 [Example 44] |
| 6.00 to 7.00 | 7.00 to 8.00 | CN1Cc2c(cnc3c(F)cc(-c4nc(N[C@@H]5CCOC[C@H]5O)ncc4Cl)cc23)C(O)C1(C)C (single isomer, unassigned) [Example 111a] |
| 7.00 to 8.00 | > 8.00 | [2H]c1nc(N[C@@H]2CCOC[C@H]2O)nc(-c2cc(F)c3nc([2H])c(C(C)(C)O)c(C)c3c2)c1F [Example 95] |
| 6.00 to 7.00 | > 8.00 | CC(C)(O)c1cnc2c(F)cc(-c3nc(N[C@@H]4CCOC[C@H]4O)ncc3Cl)cc2c1F [Example 53] |
| 6.00 to 7.00 | > 8.00 | CNC(C)c1cnc2c(F)cc(-c3nc(N[C@@H]4CCOC[C@H]4O)ncc3Cl)cc2c1C (single isomer, unassigned) [Example 48a] |
| 6.00 to 7.00 | 7.00 to 8.00 | CCc1c(C(C)(C)O)nnc2c(F)cc(-c3nc(N[C@@H]4CCOC[C@H]4O)ncc3Cl)cc12 [Example 61, (3S,4R)-4-((5-chloro-4-(4-ethyl-8-fluoro-3-(2-hydroxypropan-2-yl)cinnolin-6-yl)pyrimidin-2-yl)amino)tetrahydro-2H-pyran-3-ol] |
| 6.00 to 7.00 | > 8.00 | CC1(C)NCCc2cnc3c(F)cc(-c4nc(N[C@@H]5CCOC[C@H]5O)ncc4Cl)cc3c21 [Example 109] |
